Source: BigSolDB 2.1

Conditions: 298.15 K

CC(=O)Oc1ccccc1C(=O)O
Conditions | solubility (mole fraction)
in 1,4-dioxane | 0.126
in 2-ethylhexanol | 0.0303
in 2-methyl-1-butanol | 0.0344
in 2-methyl-1-pentanol | 0.0321
in 2-pentanol | 0.0435
in 3,7-dimethyl-1-octanol | 0.0304
in 4-methyl-2-pentanol | 0.0393
in MTBE | 0.0401
in THF | 0.19
in dibutyl ether | 0.00709
in diethyl ether | 0.0353
in diisopropyl ether | 0.0122
in ethyl acetate | 0.0458
in isobutanol | 0.0319
in isopentanol | 0.0381
in isopropanol | 0.0523
in methyl acetate | 0.0529
in methyl butyrate | 0.0297
in n-butanol | 0.0462
in n-butyl acetate | 0.0335
in n-decanol | 0.0365
in n-heptanol | 0.0389
in n-hexanol | 0.0397
in n-octanol | 0.0358
in n-pentanol | 0.0397
in n-pentyl acetate | 0.0268
in n-propanol | 0.0498
in propylene carbonate | 0.0313
in sec-butanol | 0.0536
in tert-amyl alcohol | 0.0818
in tert-butanol | 0.0684
